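Cells were grown in 96-well plates and exposed to each compound for 48 hours at five concentrations; endpoints were interpolated linearly between bracketing concentrations, or set to the highest concentration if not reached. TGI: concentration producing complete growth inhibition.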
Columns and labels:
Assay in all cases: NCI tumour cell line growth inhibition, 48 h
786-0 renal = test system: 786-0 renal
A498 renal = test system: A498 renal
A549 NSCLC = test system: A549 NSCLC
ACHN renal = test system: ACHN renal
BT-549 breast = test system: BT-549 breast
CAKI-1 renal = test system: CAKI-1 renal
COLO 205 colon = test system: COLO 205 colon
DU-145 prostate = test system: DU-145 prostate
EKVX NSCLC = test system: EKVX NSCLC
HCC-2998 colon = test system: HCC-2998 colon
HCT-116 colon = test system: HCT-116 colon
HCT-15 colon = test system: HCT-15 colon
HOP-62 NSCLC = test system: HOP-62 NSCLC
HOP-92 NSCLC = test system: HOP-92 NSCLC
HS 578T breast = test system: HS 578T breast
HT29 colon = test system: HT29 colon
IGROV1 ovarian = test system: IGROV1 ovarian
K-562 leukemia = test system: K-562 leukemia
KM12 colon = test system: KM12 colon
LOX IMVI melanoma = test system: LOX IMVI melanoma
M14 melanoma = test system: M14 melanoma
MALME-3M melanoma = test system: MALME-3M melanoma
MCF7 breast = test system: MCF7 breast
MDA-MB-231 breast = test system: MDA-MB-231 breast
MDA-MB-435 = test system: MDA-MB-435
MDA-N = test system: MDA-N
NCI-H226 lung = test system: NCI-H226 lung
NCI-H23 lung = test system: NCI-H23 lung
NCI-H460 lung = test system: NCI-H460 lung
NCI-H522 lung = test system: NCI-H522 lung
NCI/ADR-RES ovarian = test system: NCI/ADR-RES ovarian
OVCAR-3 ovarian = test system: OVCAR-3 ovarian
OVCAR-4 ovarian = test system: OVCAR-4 ovarian
OVCAR-5 ovarian = test system: OVCAR-5 ovarian
OVCAR-8 ovarian = test system: OVCAR-8 ovarian
PC-3 prostate = test system: PC-3 prostate
RPMI-8226 leukemia = test system: RPMI-8226 leukemia
RXF 393 renal = test system: RXF 393 renal
SF-268 CNS = test system: SF-268 CNS
SF-295 CNS = test system: SF-295 CNS
SF-539 CNS = test system: SF-539 CNS
SK-MEL-2 melanoma = test system: SK-MEL-2 melanoma
SK-MEL-28 melanoma = test system: SK-MEL-28 melanoma
SK-MEL-5 melanoma = test system: SK-MEL-5 melanoma
SK-OV-3 ovarian = test system: SK-OV-3 ovarian
SN12C renal = test system: SN12C renal
SNB-19 CNS = test system: SNB-19 CNS
SNB-75 CNS = test system: SNB-75 CNS
SR leukemia = test system: SR leukemia
SW-620 colon = test system: SW-620 colon
T-47D breast = test system: T-47D breast
TK-10 renal = test system: TK-10 renal
U251 CNS = test system: U251 CNS
UACC-257 melanoma = test system: UACC-257 melanoma
UACC-62 melanoma = test system: UACC-62 melanoma
UO-31 renal = test system: UO-31 renal
CCRF-CEM leukemia = test system: CCRF-CEM leukemia
HL-60(TB) leukemia = test system: HL-60(TB) leukemia
MOLT-4 leukemia = test system: MOLT-4 leukemia

Cc1ccc(/C(C#N)=C/c2cccc([N+](=O)[O-])c2)cc1
TGI (786-0 renal): > 100 µM
TGI (A498 renal): > 100 µM
TGI (A549 NSCLC): > 100 µM
TGI (ACHN renal): > 100 µM
TGI (BT-549 breast): > 100 µM
TGI (CAKI-1 renal): > 100 µM
TGI (COLO 205 colon): > 100 µM
TGI (DU-145 prostate): > 100 µM
TGI (EKVX NSCLC): > 100 µM
TGI (HCC-2998 colon): > 100 µM
TGI (HCT-116 colon): > 100 µM
TGI (HCT-15 colon): > 100 µM
TGI (HOP-62 NSCLC): > 100 µM
TGI (HOP-92 NSCLC): > 100 µM
TGI (HS 578T breast): 65 µM
TGI (HT29 colon): > 100 µM
TGI (IGROV1 ovarian): > 100 µM
TGI (K-562 leukemia): > 100 µM
TGI (KM12 colon): > 100 µM
TGI (LOX IMVI melanoma): > 100 µM
TGI (M14 melanoma): > 100 µM
TGI (MALME-3M melanoma): > 100 µM
TGI (MCF7 breast): > 100 µM
TGI (MDA-MB-231 breast): 52.8 µM
TGI (MDA-MB-435): > 100 µM
TGI (MDA-N): > 100 µM
TGI (NCI-H226 lung): > 100 µM
TGI (NCI-H23 lung): > 100 µM
TGI (NCI-H460 lung): > 100 µM
TGI (NCI-H522 lung): > 100 µM
TGI (NCI/ADR-RES ovarian): > 100 µM
TGI (OVCAR-3 ovarian): > 100 µM
TGI (OVCAR-4 ovarian): > 100 µM
TGI (OVCAR-5 ovarian): > 100 µM
TGI (OVCAR-8 ovarian): > 100 µM
TGI (PC-3 prostate): > 100 µM
TGI (RPMI-8226 leukemia): > 100 µM
TGI (RXF 393 renal): 41 µM
TGI (SF-268 CNS): > 100 µM
TGI (SF-295 CNS): 67.3 µM
TGI (SF-539 CNS): > 100 µM
TGI (SK-MEL-2 melanoma): > 100 µM
TGI (SK-MEL-28 melanoma): > 100 µM
TGI (SK-MEL-5 melanoma): > 100 µM
TGI (SK-OV-3 ovarian): > 100 µM
TGI (SN12C renal): > 100 µM
TGI (SNB-19 CNS): > 100 µM
TGI (SNB-75 CNS): 39.6 µM
TGI (SR leukemia): > 100 µM
TGI (SW-620 colon): > 100 µM
TGI (T-47D breast): > 100 µM
TGI (TK-10 renal): > 100 µM
TGI (U251 CNS): > 100 µM
TGI (UACC-257 melanoma): > 100 µM
TGI (UACC-62 melanoma): > 100 µM
TGI (UO-31 renal): > 100 µM

Cc1nc2ccc(C(F)(F)F)cc2nc1NCc1ccc(Cl)c(Cl)c1
TGI (786-0 renal): 30.3 µM
TGI (A549 NSCLC): 30.6 µM
TGI (ACHN renal): 28 µM
TGI (BT-549 breast): 39.7 µM
TGI (CAKI-1 renal): 33.8 µM
TGI (CCRF-CEM leukemia): 36.6 µM
TGI (COLO 205 colon): 30.6 µM
TGI (DU-145 prostate): 31.8 µM
TGI (EKVX NSCLC): 27.4 µM
TGI (HCC-2998 colon): 22.3 µM
TGI (HCT-116 colon): 32 µM
TGI (HCT-15 colon): 25.3 µM
TGI (HL-60(TB) leukemia): 34.7 µM
TGI (HOP-62 NSCLC): 27.5 µM
TGI (HS 578T breast): 45.5 µM
TGI (HT29 colon): 28.2 µM
TGI (IGROV1 ovarian): 31.3 µM
TGI (K-562 leukemia): 42.2 µM
TGI (KM12 colon): 30.1 µM
TGI (LOX IMVI melanoma): 29.6 µM
TGI (MALME-3M melanoma): 32 µM
TGI (MCF7 breast): 22.6 µM
TGI (MDA-MB-231 breast): 29.4 µM
TGI (MDA-MB-435): 31.8 µM
TGI (MDA-N): 32 µM
TGI (MOLT-4 leukemia): 35.8 µM
TGI (NCI-H226 lung): 37.9 µM
TGI (NCI-H23 lung): 30.9 µM
TGI (NCI-H460 lung): > 100 µM
TGI (NCI-H522 lung): 28.8 µM
TGI (NCI/ADR-RES ovarian): 47.6 µM
TGI (OVCAR-3 ovarian): 26.3 µM
TGI (OVCAR-5 ovarian): 25.9 µM
TGI (OVCAR-8 ovarian): 33.2 µM
TGI (PC-3 prostate): 25.6 µM
TGI (RPMI-8226 leukemia): 38.9 µM
TGI (RXF 393 renal): 26.5 µM
TGI (SF-268 CNS): 34 µM
TGI (SF-295 CNS): 32.2 µM
TGI (SF-539 CNS): 33.7 µM
TGI (SK-MEL-28 melanoma): 33.9 µM
TGI (SK-MEL-5 melanoma): 33.8 µM
TGI (SN12C renal): 35.3 µM
TGI (SNB-19 CNS): 36.6 µM
TGI (SNB-75 CNS): 26.9 µM
TGI (SR leukemia): 32.7 µM
TGI (SW-620 colon): 34.7 µM
TGI (T-47D breast): 9 µM
TGI (TK-10 renal): 21.2 µM
TGI (U251 CNS): 30.6 µM
TGI (UACC-257 melanoma): 30.1 µM
TGI (UACC-62 melanoma): 18.5 µM
TGI (UO-31 renal): 29.9 µM

— PubChem BioAssay (NCI)
